These results are taken from patent US8609669B2, “Potassium channel modulators” (AbbVie Inc., priority 2010, dated 2013).

Usually EC50 stands for the concentration giving half of the maximal effect. A higher EC50 goes with lower potency in that assay.

The assay addresses T1, KCNQ 2/3 channels (HEK293 cells stably expressing human KCNQ2 and KCNQ3 subunits) (Homo sapiens, UniProt O43525+O43526).
T1 construct: expressed in transfected cells; host or cells: HEK293
The assay is described as follows: KCNQ2/3 channel activation, thallium flux FLIPR assay (BTC-AM dye). The class given is cell-based. To be noted: for Emax: HEK293, maximum response relative to response of retigabine at 10 μM (set at 100%), read-out: Max. %; for EC50: HEK293 cells expressing human KCNQ2 and KCNQ3, FLIPR thallium flux. How it is done: The following example describes the assay that can be used to identify compounds that activate KCNQ 2/3 channels.
HEK293 cells stably expressing human KCNQ2 and KCNQ3 subunits were seeded in 96-well, black-walled, clear-bottomed, poly-D-lysine coated plates (BD Biosciences, Bedford, Mass.) at a density of 1×10^5 cells per well 24 hours before the assay. On the assay day, BTC-AM dye (Invitrogen, Carlsbad, Calif.) was loaded into the cells by replacing the cell culture medium with 100 μL/well of 4 μM dye in DPBS. Dye loading was allowed to proceed for 2 hours at room temperature and then cells were washed twice in 100 μL/well of assay buffer (in mM: 10 HEPES pH 7.3, 5 glucose, 140 Na-gluconate, 2.5 K-gluconate, 3.6 Ca-gluconate, 2 MgSO4, 0.1 Ouabain) to remove unloaded dye. Cells were incubated in 50 μL of assay buffer before loading onto a FLIPR system (Molecular Devices, Sunnyvale, Calif.). Various concentrations of compounds to be assayed were added to the cells in 50 μL of assay buffer and incubated for 4 minutes. The fluorescence signal was initiated by adding 100 μL of assay buffer containing 6 mM TlNO3 and 10 mM K2SO4. Fluors were excited using the 488-nm line of an argon laser and emission was filtered using a 540±30 nm bandpass filter. Fluorescent signals were recorded for 3 minutes. Responses over baseline values were plotted versus concentrations of test compounds to obtain an EC50 value. The maximum response for each test compound was determined relative to the response produced at 10 μM by retigabine. The maximum response of retigabine at 10 μM was set at 100%.

In the case of `Cc1cc(C)n2nc(NC(=O)CCc3ccccc3)c(CC(C)(C)C)c2n1` [Example 15, N-[3-(2,2-dimethylpropyl)-5,7-dimethylpyrazolo[1,5-a]pyrimidin-2-yl]-3-phenylpropanamide], the Emax worked out at 191% and the EC50 was 100 to 500 nM.

Take `O=C(CC12CC3CC(CC(C3)C1)C2)Nc1nn2cccnc2c1-c1ccc2ccccc2c1` [Example 116, 2-(adamantan-1-yl)-N-[3-(2-naphthyl)pyrazolo[1,5-a]pyrimidin-2-yl]acetamide]: the Emax is 98% and the EC50 fell in the range of 500 to 1000 nM.

As to `Cc1cc(C)n2nc(NC(=O)Cc3ccc(F)cc3)c(-c3ccccc3)c2n1` [Example 96, N-(5,7-dimethyl-3-phenylpyrazolo[1,5-a]pyrimidin-2-yl)-2-(4-fluorophenyl)acetamide], the Emax was 206% and the concentration for a half-maximal effect (EC50) was in the range of 100 to 500 nM.

For the compound `Cc1cnc2c(-c3ccccc3)c(NC(=O)Cc3ccc(Cl)cc3)nn2c1` [Example 93, 2-(4-chlorophenyl)-N-(6-methyl-3-phenylpyrazolo[1,5-a]pyrimidin-2-yl)acetamide], the Emax amounted to 131% and the EC50 lay within 100 to 500 nM.

In the case of `O=C(CC1CCCC1)Nc1nn2cccnc2c1-c1cccc(C(F)(F)F)c1` [Example 64, 2-cyclopentyl-N-{3-[3-(trifluoromethyl)phenyl]pyrazolo[1,5-a]pyrimidin-2-yl}acetamide], the Emax was determined as 113% and the half-maximal effective concentration (EC50) was over 10000 nM.

Turning to `Cc1cnc2c(-c3ccc(F)c(C)c3)c(NC(=O)CSC3CCCC3)nn2c1` [Example 143, 2-(cyclopentylthio)-N-[3-(4-fluoro-3-methylphenyl)-6-methylpyrazolo[1,5-a]pyrimidin-2-yl]acetamide], the Emax was determined as 162% and the half-maximal effective concentration (EC50) lay in the range of 100 to 500 nM.

Consider `Cc1ccc(/C=C/c2c(NC(=O)CC(C)(C)C)nn3cccnc23)cn1` [Example 115, 3,3-dimethyl-N-{3-[(E)-2-(6-methylpyridin-3-yl)vinyl]pyrazolo[1,5-a]pyrimidin-2-yl}butanamide], for which the Emax turned out to be 10% and the EC50 is over 10000 nM.

Take `CC(C)c1c(NC(=O)COC2CCCC2)nn2cccnc12` [Example 133, 2-(cyclopentyloxy)-N-(3-isopropylpyrazolo[1,5-a]pyrimidin-2-yl)acetamide]: the Emax turned out to be 7% and the EC50 is over 10000 nM.

`Cc1cnc2c(-c3ccc(F)cc3)c(NC(=O)Cc3ccc(Cl)cc3)nn2c1` [Example 27, 2-(4-chlorophenyl)-N-[3-(4-fluorophenyl)-6-methylpyrazolo[1,5-a]pyrimidin-2-yl]acetamide]: the Emax was found to be 125% and the EC50 was 100 to 500 nM.

Regarding `O=C(Cc1cccnc1)Nc1nn2cccnc2c1-c1ccc(OC(F)(F)F)cc1` [Example 98, 2-(pyridin-3-yl)-N-{3-[4-(trifluoromethoxy)phenyl]pyrazolo[1,5-a]pyrimidin-2-yl}acetamide], the Emax was determined as 72.3% and the concentration for a half-maximal effect (EC50) was over 10000 nM.

`Cc1cnc2c(-c3ccc(F)c(C)c3)c(NC(=O)CC(C)(C)c3ccccc3)nn2c1` [Example 149, N-[3-(4-fluoro-3-methylphenyl)-6-methylpyrazolo[1,5-a]pyrimidin-2-yl]-3-methyl-3-phenylbutanamide]: the Emax amounted to 127% and the concentration for a half-maximal effect (EC50) fell in the range of 500 to 1000 nM.

Regarding `COc1ccc(CC(=O)Nc2nn3cc(C)cnc3c2-c2cccc(Cl)c2)cc1` [Example 50, N-[3-(3-chlorophenyl)-6-methylpyrazolo[1,5-a]pyrimidin-2-yl]-2-(4-methoxyphenyl)acetamide], the Emax turned out to be 100% and the EC50 is 1000 to 10000 nM.

On to `COc1cccc(CC(=O)Nc2nn3c(C)cc(C)nc3c2-c2ccc(F)c(C)c2)c1` [Example 32, N-[3-(4-fluoro-3-methylphenyl)-5,7-dimethylpyrazolo[1,5-a]pyrimidin-2-yl]-2-(3-methoxyphenyl)acetamide], for which the Emax is 173% and the concentration giving a half-maximal response (EC50) lay within 100 to 500 nM.

In the case of `COc1ncc(-c2c(NC(=O)Cc3ccc(F)cc3)nn3cccnc23)cn1` [Example 181, 2-(4-fluorophenyl)-N-[3-(2-methoxypyrimidin-5-yl)pyrazolo[1,5-a]pyrimidin-2-yl]acetamide], the Emax is 7% and the EC50 was over 10000 nM.

For the compound `Cc1cc(C)n2nc(NC(=O)CCC3CCCC3)c(-c3ccccc3)c2n1` [Example 95, 3-cyclopentyl-N-(5,7-dimethyl-3-phenylpyrazolo[1,5-a]pyrimidin-2-yl)propanamide], the Emax was found to be 167% and the concentration for a half-maximal effect (EC50) was under 100 nM.

Regarding `Cc1cc(C)n2nc(NC(=O)CCc3ccccc3)c(-c3cccc(F)c3)c2n1` [Example 85, N-[3-(3-fluorophenyl)-5,7-dimethylpyrazolo[1,5-a]pyrimidin-2-yl]-3-phenylpropanamide], the Emax came out at 131% and the half-maximal effective concentration (EC50) lay within 500 to 1000 nM.

Take `Cc1cc(C)n2nc(NC(=O)CCc3ccccc3)c(-c3ccc(F)cc3)c2n1` [Example 29, N-[3-(4-fluorophenyl)-5,7-dimethylpyrazolo[1,5-a]pyrimidin-2-yl]-3-phenylpropanamide]: the Emax was determined as 166% and the EC50 fell in the range of 100 to 500 nM.

As for `COc1cc(CC(=O)Nc2nn3cccnc3c2-c2cccc(F)c2)cc(OC)c1` [Example 138, 2-(3,5-dimethoxyphenyl)-N-[3-(3-fluorophenyl)pyrazolo[1,5-a]pyrimidin-2-yl]acetamide], the Emax was found to be 11% and the EC50 is over 10000 nM.

In the case of `O=C(CCC1CCCCC1)Nc1nn2cccnc2c1-c1ccc(F)cc1` [Example 24, 3-cyclohexyl-N-[3-(4-fluorophenyl)pyrazolo[1,5-a]pyrimidin-2-yl]propanamide], the Emax was found to be 137% and the 50% effective concentration (EC50) was 100 to 500 nM.

For `Cc1cnc2c(-c3cccc(C(F)(F)F)c3)c(NC(=O)CC(C)(C)C)nn2c1` [Example 63, 3,3-dimethyl-N-{6-methyl-3-[3-(trifluoromethyl)phenyl]pyrazolo[1,5-a]pyrimidin-2-yl}butanamide], the Emax amounted to 125% and the EC50 was in the range of 100 to 500 nM.

Take `O=C(CC1CC2CCC1C2)Nc1nn2cccnc2c1-c1ccc(OC(F)(F)F)cc1` (racemic) [Example 124, (±)-exo-2-bicyclo[2.2.1]hept-2-yl-N-{3-[4-(trifluoromethoxy)phenyl]pyrazolo[1,5-a]pyrimidin-2-yl}acetamide]: the Emax was found to be 130% and the EC50 lay in the range of 100 to 500 nM.

On to `Cc1cc(C)n2nc(NC(=O)CC3CCCC3)c(-c3cccc(Cl)c3)c2n1` [Example 53, N-[3-(3-chlorophenyl)-5,7-dimethylpyrazolo[1,5-a]pyrimidin-2-yl]-2-cyclopentylacetamide], for which the Emax is 143% and the EC50 is under 100 nM.

For the compound `Cc1cnc2c(-c3ccc(F)cc3)c(NC(=O)Cc3ccccc3)nn2c1` [Example 25, N-[3-(4-fluorophenyl)-6-methylpyrazolo[1,5-a]pyrimidin-2-yl]-2-phenylacetamide], the Emax was 171% and the EC50 is 100 to 500 nM.

Consider `O=C(Cc1ccc(F)cc1)Nc1nn2cccnc2c1-c1cccc(F)c1` [Example 82, 2-(4-fluorophenyl)-N-[3-(3-fluorophenyl)pyrazolo[1,5-a]pyrimidin-2-yl]acetamide], for which the Emax worked out at 112% and the EC50 lay within 500 to 1000 nM.

Regarding `CC(C)(C)c1c(NC(=O)C=C2CCCCC2)nn2cccnc12` [Example 163, N-(3-tert-butylpyrazolo[1,5-a]pyrimidin-2-yl)-2-cyclohexylideneacetamide], the Emax was determined as 133% and the EC50 is 1000 to 10000 nM.

As to `CC(C)(C)/C=C/c1c(NC(=O)CC(C)(C)C)nn2cccnc12` [Example 144, N-{3-[(1E)-3,3-dimethylbut-1-en-1-yl]pyrazolo[1,5-a]pyrimidin-2-yl}-3,3-dimethylbutanamide], the Emax amounted to 174% and the concentration giving a half-maximal response (EC50) was in the range of 100 to 500 nM.

Regarding `Cc1cnc2c(-c3cccc(OC(F)(F)F)c3)c(NC(=O)CC(C)(C)C)nn2c1` [Example 3, 3,3-dimethyl-N-{6-methyl-3-[3-(trifluoromethoxy)phenyl]pyrazolo[1,5-a]pyrimidin-2-yl}butanamide], the Emax was 141% and the half-maximal effective concentration (EC50) is 100 to 500 nM.

Consider `Cc1cc(C)n2nc(NC(=O)CCc3ccccc3)c(-c3ccc(Cl)c(C)c3)c2n1` [Example 47, N-[3-(4-chloro-3-methylphenyl)-5,7-dimethylpyrazolo[1,5-a]pyrimidin-2-yl]-3-phenylpropanamide], for which the Emax came to 125% and the EC50 was 100 to 500 nM.

Consider `Cc1ccnc2c(-c3ccc(C(F)(F)F)cc3)c(NC(=O)CCC3CCCCC3)nn12` [Example 79, 3-cyclohexyl-N-{7-methyl-3-[4-(trifluoromethyl)phenyl]pyrazolo[1,5-a]pyrimidin-2-yl}propanamide], for which the Emax is 122% and the concentration for a half-maximal effect (EC50) was in the range of 100 to 500 nM.
